In brackets after ≈: the same amount, converted by molar mass.
Experiments:
[1] = Food effect study (high fat, high calorie meal) in healthy volunteers; assay type: in vivo, human; details: for Tmax / AUC(0-inf) / AUC(0-t) / Cmax: human, plasma, 30 mg; for AUC(0-inf): read-out: AUC0-inf, Geometric LSM; for AUC(0-t): read-out: AUC0-t, Geometric LSM; for Cmax: read-out: Cmax, Geometric LSM
Procedure: An open-label study in 16 healthy volunteers to evaluate the pharmacokinetic effect of a high fat (˜50% of total caloric content of the meal), high calorie meal on the solid solution capsule of Compound 1 in a 50:50 mixture of macrogol-40-glycerol hydroxystearate:PEG-4000. Subjects received a single oral dose of 30 mg Compound 1, given in the fed or fasted state. Blood samples were collected for measurement of Compound 1 plasma concentrations.

[2] = pH solubility profile of Compound 1 in buffers, water, HCl and biorelevant media; assay type: physicochemical
[3] = Pharmacokinetics of solid solution capsules in dogs; details: male, beagle, dog, in vivo, po, 20 mg, PO 20 mg/dog
Procedure: Solid Solution capsules of Compound 1 comprising 50:50 macrogol-40-glycerol hydroxystearate:PEG-4000 or 100% macrogol-40-glycerol hydroxystearate were prepared using the general procedures described in Example 4. The PEG heating steps were omitted for the 100% macrogol-40 glycerol hydroxystearate formulations. These formulations were dosed in beagle dogs (male) at 20 mg per dog to evaluate the pharmacokinetic profile. The results are summarized in Table 11 (below, and shown in FIG. 8 (50:50 macrogol-40-glycerol hydroxystearate:PEG-4000 and FIG. 9 (100% macrogol-40-glycerol hydroxystearate).

[4] = Pharmacokinetics of solid solution capsule in patients with ANCA associated vasculitis; assay type: in vivo, Humans; details: for Days 57-85 Cmin, Mean / AUC(0-t) / Cmax / Tmax: 30 mg twice daily oral, 50:50 solid solution capsules; for AUC(0-t) / Cmax / Tmax: human, in vivo, po; for AUC(0-t): read-out: Day 1 AUC0-6hr, Mean; for Cmax: read-out: Day 1 Cmax, Mean; for Tmax: read-out: Day 1 Tmax, Mean
Procedure: Solid Solution capsules of Compound 1 comprising 50:50 macrogol-40-glycerol hydroxystearate:PEG-4000 were prepared using the general procedures described in Example 4.
Patients with AAV were randomized and double-blind in placebo-controlled clinical trial conducted in a step-wise manner to evaluate the efficacy and safety of Compound 1 formulated in a solid solution as described above with reduced or no prednisone in comparison with the standard of care full dose prednisone. All patients received either cyclophosphamide (CYC) or rituximab (RTX) intravenously. 22 subjects received 30 mg of Compound 1 as described above b.i.d. for 84 days and no prednisone (prednisone-matching placebo), 22 subjects received 30 mg Compound 1 as described above b.i.d. for 84 days plus a reduced starting dose (i.e., 20 mg/day) of prednisone, and 23 subjects received Compound 1 as described above—matching placebo b.i.d. for 84 days plus a full starting dose of prednisone (i.e., 60 mg/day). All subjects received IV cyclophosphamide or rituximab.

[5] = healthy volunteers, 30 mg single oral dose, 100 × (test/reference)
[6] = high fat, high calorie meal with 30 mg Compound 1
[7] = po, healthy volunteers, 30 mg single oral dose, 50:50 solid solution capsule, Fasted
[8] = po, healthy volunteers, 30 mg single oral dose, 50:50 solid solution capsule, Fed (high fat, high calorie meal)
[9] = capsule in 50:50 macrogol-40-glycerol hydroxystearate:PEG-4000, Average of T1-T3
[10] = capsule in 50:50 macrogol-40-glycerol hydroxystearate:PEG-4000, trial T1
[11] = capsule in 50:50 macrogol-40-glycerol hydroxystearate:PEG-4000, trial T2
[12] = capsule in 50:50 macrogol-40-glycerol hydroxystearate:PEG-4000, trial T3
[13] = capsule in 100% macrogol-40-glycerol hydroxystearate, Average of T1-T3
[14] = capsule in 100% macrogol-40-glycerol hydroxystearate, trial T1
[15] = capsule in 100% macrogol-40-glycerol hydroxystearate, trial T2
[16] = capsule in 100% macrogol-40-glycerol hydroxystearate, trial T3
[17] = AAV patients, Compound 1 + Low Dose Prednisone
[18] = 30 mg, AAV patients, Compound 1 + No Prednisone
[19] = 30 mg, AAV patients, Compound 1 with or without Prednisone

In the case of `Cc1ccc(NC(=O)[C@H]2CCCN(C(=O)c3c(C)cccc3F)[C@H]2c2ccc(NC3CCCC3)cc2)cc1C(F)(F)F` [Compound 1, (2R,3 S)-2-(4-(cyclopentylamino)phenyl)-1-(2-fluoro-6-methylbenzoyl)-N-(4-methyl-3-(trifluoromethyl)phenyl)piperidine-3-carboxamide], the “AUC0-inf, GMR (fed/fasted)” value [1, 5] is reported as 171.60%, the “AUC0-t, GMR (fed/fasted)” value [1, 5] is reported as 170.68% and the “Cmax, GMR (fed/fasted)” value [1, 5] is reported as 107.98%. For the same compound, the “Tmax, GMR (fed/fasted)” value [1, 5] was 235.29%, the “increase of Cmax, fed compared to fasted” value [1, 6] was 8% and the “increase of plasma Compound 1 AUC, fed compared to fasted” value [1, 6] was “approximately 70%”. The Tmax ([1]; oral, high fat, high calorie meal with 30 mg Compound 1, read-out: delay of Tmax in the fed population) was roughly 3 h, the AUC(0-inf) [1, 7] was 959 ng·h/mL and the AUC(0-t) [1, 7] was 826 ng·h/mL. The Cmax [1, 7] was 119 ng/mL, the Tmax ([1]; po, healthy volunteers, 30 mg single oral dose, 50:50 solid solution capsule, Fasted, read-out: Tmax, untransformed LSM) was 2.29 h and the AUC(0-inf) [1, 8] was 1650 ng·h/mL. It also gave an AUC(0-t) [1, 8] of 1410 ng·h/mL, a Cmax [1, 8] of 128 ng/mL and a Tmax ([1]; po, healthy volunteers, 30 mg single oral dose, 50:50 solid solution capsule, Fed (high fat, high calorie meal), read-out: Tmax, untransformed LSM) of 5.38 h. For the same compound, the solubility ([2]; Fasted-State Simulated Intestinal Fluid (FaSSIF), FaSSIF, pH 6.5, actual pH 6.47) was 0.656 µg/mL (≈ 1.13 µM), the solubility ([2]; Fed-State Simulated Intestinal Fluid (FeSSIF), FeSSIF, pH 5, actual pH 4.98) was 2.09 µg/mL (≈ 3.6 µM) and the solubility ([2]; Fed-State Simulated Intestinal Fluid (FeSSIF), FeSSIF, pH 6.5, actual pH 6.47) was 1.96 µg/mL (≈ 3.37 µM). The solubility ([2]; Simulated Gastric Fluid (SGF), simulated gastric fluid, SGF, pH 1.6, actual pH 1.39) was 2.65 µg/mL (≈ 4.55 µM), the solubility ([2]; Water, actual pH 5.92) was 0.008 µg/mL (≈ 0.0138 µM) and the aqueous solubility ([2]; across full spectrum of pH range, including the biorelevant media and water) was “very poor aqueous solubility”. It also gave a solubility ([2]; aqueous buffer, pH 2 Buffer, actual pH 1.99) of 0.863 µg/mL (≈ 1.48 µM), a solubility ([2]; aqueous buffer, pH 3 Buffer, actual pH 3.01) of 0.101 µg/mL (≈ 0.174 µM) and a solubility ([2]; aqueous buffer, pH 4 Buffer, actual pH 4.01) of 0.013 µg/mL (≈ 0.0224 µM). It also gave a solubility ([2]; aqueous buffer, pH 5 Buffer, actual pH 5.00) of 0.021 µg/mL (≈ 0.0361 µM), a solubility ([2]; aqueous buffer, pH 6 Buffer, actual pH 6.00) of 0.021 µg/mL (≈ 0.0361 µM) and a solubility ([2]; aqueous buffer, pH 7 Buffer, actual pH 7.03) of 0.053 µg/mL (≈ 0.0911 µM). The solubility ([2]; aqueous buffer, pH 8 Buffer, actual pH 8.00) was 0.068 µg/mL (≈ 0.117 µM), the solubility ([2]; aqueous buffer, pH 9 Buffer, actual pH 9.00) was 0.101 µg/mL (≈ 0.174 µM) and the solubility ([2]; aqueous buffer, pH 10 Buffer, actual pH 9.95) was 0.03 µg/mL (≈ 0.0516 µM). It also gave a solubility ([2]; simulated gastric fluid, 0.1N HCl, actual pH 1.05) of 8.05 µg/mL (≈ 13.8 µM), an AUC(0-inf) [3, 9] of 1630 ng·h/mL and an AUC(0-t) [3, 9] of 1580 ng·h/mL. It also gave a Cmax [3, 9] of 429 ng/mL, an MRT [3, 9] of 4.7 h and a Tmax [3, 9] of 1.3 h. The AUC(0-inf) [3, 10] was 1310 ng·h/mL, the AUC(0-t) [3, 10] was 1260 ng·h/mL and the Cmax [3, 10] was 411 ng/mL. For the same compound, the MRT [3, 10] was 4.8 h, the Tmax [3, 10] was 1 h and the AUC(0-inf) [3, 11] was 1440 ng·h/mL. For the same compound, the AUC(0-t) [3, 11] was 1390 ng·h/mL, the Cmax [3, 11] was 396 ng/mL and the MRT [3, 11] was 4.5 h. The Tmax [3, 11] was 1 h, the AUC(0-inf) [3, 12] was 2150 ng·h/mL and the AUC(0-t) [3, 12] was 2080 ng·h/mL. It also gave a Cmax [3, 12] of 481 ng/mL, an MRT [3, 12] of 4.8 h and a Tmax [3, 12] of 2 h. The AUC(0-inf) [3, 13] was 2440 ng·h/mL, the AUC(0-t) [3, 13] was 2370 ng·h/mL and the Cmax [3, 13] was 607 ng/mL. The MRT [3, 13] was 4.8 h, the Tmax [3, 13] was 2.3 h and the AUC(0-inf) [3, 14] was 2660 ng·h/mL. The AUC(0-t) [3, 14] was 2470 ng·h/mL, the Cmax [3, 14] was 590 ng/mL and the MRT [3, 14] was 7.1 h. For the same compound, the Tmax [3, 14] was 2 h, the AUC(0-inf) [3, 15] was 3020 ng·h/mL and the AUC(0-t) [3, 15] was 3000 ng·h/mL. It also gave a Cmax [3, 15] of 604 ng/mL, an MRT [3, 15] of 4.2 h and a Tmax [3, 15] of 4 h. The AUC(0-inf) [3, 16] was 1660 ng·h/mL, the AUC(0-t) [3, 16] was 1650 ng·h/mL and the Cmax [3, 16] was 628 ng/mL. For the same compound, the MRT [3, 16] was 3.2 h, the Tmax [3, 16] was 1 h and the “Days 57-85 Cmin, Mean” value [4, 17] was 219 ng/mL. For the same compound, the “Days 57-85 Cmin, Mean” value ([4]; AAV patients, Compound 1 + No Prednisone) was 177 ng/mL, the “Days 57-85 Cmin, Mean” value ([4]; AAV patients, Compound 1 with or without Prednisone) was 204 ng/mL and the absorption ([4]; following the first dose of 30 mg on Day 1, AAV patients) was “absorbed rapidly”. It also gave an AUC(0-t) [4, 18] of 526 ng·h/mL, a Cmax [4, 18] of 166 ± 55.2 ng/mL and a Tmax [4, 18] of 2.85 h. The AUC(0-t) [4, 19] was 580 ± 219 ng·h/mL, the Cmax [4, 19] was 188 ± 69 ng/mL and the Tmax [4, 19] was 2.62 h. It also gave an AUC(0-t) [4, 17] of 643 ng·h/mL, a Cmax [4, 17] of 214 ng/mL and a Tmax [4, 17] of 2.35 h. For the same compound, the drug-drug interaction ([4]; with concomitant medications prednisone, cyclophosphamide, and rituximab, AAV patients) was “No significant drug-drug interaction”.

Source: patent US11951214B2, “Capsule formulations” (CHEMOCENTRYX, INC., priority 2018, dated 2024)
